From patent US8609652B2, “Method of administering a methylene blue-curcumin analog for the treatment of alzheimer's disease” (DePuy Synthes Products, LLC, priority 2009, dated 2013)

Key:
[1] = tested on: beta-amyloid aggregation; conditions: cited from earlier work
[2] = target: plasma membrane binding sites for resveratrol; conditions: rat brain; cited from earlier work
[3] = cited from earlier work
[4] = cited from earlier work; remark: listed apart in the source
[5] = tested on: rat hippocampal neurons; conditions: cited from earlier work
[6] = cited from earlier work; remark: listed apart in the source
[7] = tested on: cultured hippocampal cells; conditions: cited from earlier work
[8] = tested on: PC12 cells, βA (25-35); conditions: cited from earlier work
[9] = tested on: AD patients' macrophages; conditions: cited from earlier work
[10] = tested on: PC12 cells, βA (1-42); conditions: cited from earlier work
[11] = tested on: PC12 cells; assay: relative potency versus curcumin in in vitro protection of PC12 cells against beta amyloid insult; assay type: cell-based
Source text: Each of the parent compounds may be obtained by the methods disclosed in Park.
It is further observed that both of these qualities can be placed into the same molecule (35).

[12] = tested on: neuronal mitochondrial complex IV; conditions: cited from earlier work
[13] = tested on: tau filaments; conditions: cited from earlier work
[14] = tested on: rate of cognitive decline; conditions: 19 month period; cited from earlier work
[15] = iontophoresis of 100 mg for 20 minutes; cited from earlier work
[16] = 10 mg/ml patch, 0.1 mA/cm^2 current density; cited from earlier work

NCCc1ccc(O)c(O)c1 [dopamine]
potency to inhibit beta-amyloid aggregation relative to curcumin [1]: about 10 times

Oc1ccc(C=Cc2cc(O)cc(O)c2)cc1 [resveratrol]
Ki [2]: 102 nM | solubility in water [3]: < 10 mM | oral bioavailability [4]: about zero | concentration with neuroprotective effect against beta amyloid-induced neurotoxicity [5]: 20 µM | octanol/water partition coefficient log P [6]: about 3.14 | concentration protecting against nitric oxide related neurotoxicity [7]: 5 to 25 µM

O=C(C=Cc1ccc(O)cc1)CC(=O)C=Cc1ccc(O)cc1 [compound 33, 1,7-bis(4-hydroxyphenyl)-1,6-heptadiene-3,5-dione]
anti-BA (25-35) ED50 ([8]; Kim): 3.5 ± 0.2 µg/mL | anti-βA (25-35) ED50 ([8]; Park, concentration required to achieve 50% cell viability): 2.0 ± 0.6 µg/mL | optimum concentration [9]: 0.1 µM | anti-BA (1-42) ED50 ([10]; Kim): 3.0 ± 0.3 µg/mL | anti-βA (1-42) ED50 ([10]; Park): 3.5 ± 0.7 µg/mL | fold more potent than curcumin as neuroprotectant against beta amyloid ([11]; analysis of the Kim data): ~2 fold | fold more potent than curcumin as neuroprotectant against beta amyloid ([11]; analysis of the Park data): 3 fold

CN(C)c1ccc2nc3ccc(=[N+](C)C)cc-3sc2c1 [methylene blue]
enhancement of cellular oxygen consumption [12]: 37-70% | increase of neuronal mitochondrial complex IV [12]: 30% | formation of tau filaments [13]: inhibits the formation of tau filaments | decrease in the rate of cognitive decline as compared to controls [14]: 81%

O=C(OCCOCCO)c1ccccc1Nc1cccc(C(F)(F)F)c1 [etofenamate]
serum concentration [15]: about 200 ng/ml

CC(C)NCC(O)COc1cccc2ccccc12 (centres unmarked) [propranolol]
Cmax serum concentration [16]: about 200 ng/ml
